# According to US20220331391A1 (priority 2021, published 2022):
# Several values for one entry are separate records, joined by “and”; a condition that tells them apart may be missing. Equal entries are not always repeated. Where two headings read alike, the source gives them in different places.
# Key:
# [1] = system: Coccidioides posadasii, Silveira strain; set-up: species or system mice; details: mouse, in vivo
# [2] = system: Coccidioides posadasii, Silveira strain; details: cited from earlier work
# [3] = human, in vivo, po
# [4] = dog, in vivo, po
# Coccidioides [5] = details: mouse, in vivo, 40 mg/kg/day; cited from earlier work
# Coccidioides [6] = details: mouse, in vivo; cited from earlier work
# [7] = mouse, in vivo, cited from earlier work; for Cmax in plasma / Tmax in plasma / t1/2 in plasma: po
# [8] = mouse, in vivo, po, cited from earlier work
# [9] = mouse, in vivo; cited from earlier work
# [10] = in vivo, cited from earlier work
smiles,measurement,setting,value
"OC(Cn1cncn1)(Cn1cncn1)c1ccc(F)cc1F [FCZ, Fluconazole, reference compound]",Brains sterilized in survivors,[1],20%
same,Clear brains of survivors (mice),[1],1 of 5
same,"Infected brain and infected other organs, number of mice among survivors",[1],4
same,"Infected brain only, number of mice among survivors",[1],0
same,"Infected brain, number of mice among survivors",[1],4
same,"Infected kidney, number of mice among survivors",[1],1
same,"Infected liver, number of mice among survivors",[1],4
same,"Infected lung, number of mice among survivors",[1],4
same,"Infected spleen, number of mice among survivors",[1],3
same,Kidney CFU in survivors: number of mice with 0 CFU,[1],5
same,Kidney CFU in survivors: number of mice with 1-2 CFU,[1],0
same,Kidney CFU in survivors: number of mice with 10-20 CFU,[1],0
same,Kidney CFU in survivors: number of mice with TNTC (too numerous to count),[1],0
same,Liver CFU in survivors: number of mice with 0 CFU,[1],1
same,Liver CFU in survivors: number of mice with 1-2 CFU,[1],1
same,Liver CFU in survivors: number of mice with 10-20 CFU,[1],2
same,Liver CFU in survivors: number of mice with TNTC (too numerous to count),[1],1
same,Lung CFU in survivors: number of mice with 0 CFU,[1],1
same,Lung CFU in survivors: number of mice with 1-2 CFU,[1],2
same,Lung CFU in survivors: number of mice with 10-20 CFU,[1],1
same,Lung CFU in survivors: number of mice with TNTC (too numerous to count),[1],1
same,"No infection any organ, number of mice (complete sterilization)",[1],1
same,"Semiquantitative culture, CFU in all organs except the spleen",[1],too numerous to count
same,"Semiquantitative culture, CFU in spleen",[1],no CFU
same,Spleen CFU in survivors: number of mice with 0 CFU,[1],2
same,Spleen CFU in survivors: number of mice with 1-2 CFU,[1],2
same,Spleen CFU in survivors: number of mice with 10-20 CFU,[1],1
same,Spleen CFU in survivors: number of mice with TNTC (too numerous to count),[1],0
same,Survival,[1],50%
same,Survivors,[1],5/10
same,MFC,[2],> 100 µg/mL
same,MIC,[2],6.25 µg/mL
"C[C@@H]([C@H](N)C(=O)N[C@H](C(=O)O)[C@H]1O[C@@H](n2ccc(=O)[nH]c2=O)[C@H](O)[C@@H]1O)[C@H](O)c1ccc(O)cn1 [nikZ, Nikkomycin Z]",Brains sterilized in survivors,[1],86% and 89% and 80%
same,"Brains sterilized, mice/10 treated",[1],≥ 6 mice/10
same,Clear brains of survivors (mice),[1],6 of 7 and 8 of 9
same,"Infected brain, number of mice among survivors",[1],1 and 2
same,"Infected kidney, number of mice among survivors",[1],0
same,"Infected spleen, number of mice among survivors",[1],0
same,Kidney CFU in survivors: number of mice with 0 CFU,[1],7 and 9 and 10
same,Kidney CFU in survivors: number of mice with 1-2 CFU,[1],0
same,Kidney CFU in survivors: number of mice with 10-20 CFU,[1],0
same,Kidney CFU in survivors: number of mice with TNTC (too numerous to count),[1],0
same,Liver CFU in survivors: number of mice with 0 CFU,[1],6 and 9 and 10
same,Liver CFU in survivors: number of mice with 10-20 CFU,[1],0
same,Liver CFU in survivors: number of mice with TNTC (too numerous to count),[1],0
same,Lung CFU in survivors: number of mice with 0 CFU,[1],6 and 9
same,Lung CFU in survivors: number of mice with 10-20 CFU,[1],0
same,Lung CFU in survivors: number of mice with TNTC (too numerous to count),[1],0
same,"No infection any organ, number of mice (complete sterilization)",[1],6 and 8
same,Spleen CFU in survivors: number of mice with 0 CFU,[1],7 and 9 and 10
same,Spleen CFU in survivors: number of mice with 1-2 CFU,[1],0
same,Spleen CFU in survivors: number of mice with 10-20 CFU,[1],0
same,Spleen CFU in survivors: number of mice with TNTC (too numerous to count),[1],0
same,Survivors,[1],7/10 and 9/10 and 10/10
same,Cmin as % of Cmax,"mouse, in vivo",1%
same,Blood level as % of Cmax by 8 hours,"mouse, in vivo, po",about 5%
same,Time to reach Cmax,"mouse, in vivo, po",1 to 2 h
same,AUC,"mouse, in vivo, po, 50 mg/kg","13,000"
same,Cmax,"mouse, in vivo, po, 50 mg/kg","3,750 ng/ml"
same,T 1/2,"mouse, in vivo, po, 50 mg/kg",2.61 h
same,Tmax,"mouse, in vivo, po, 50 mg/kg",1
same,AUC,"mouse, in vivo, po, 100 mg/kg","20,600"
same,Cmax,"mouse, in vivo, po, 100 mg/kg","4,620 ng/ml"
same,T 1/2,"mouse, in vivo, po, 100 mg/kg",2.15 h
same,Tmax,"mouse, in vivo, po, 100 mg/kg",1
same,AUC,"mouse, in vivo, po, 300 mg/kg","38,200"
same,Cmax,"mouse, in vivo, po, 300 mg/kg","7,950 ng/ml"
same,T 1/2,"mouse, in vivo, po, 300 mg/kg",2.26 h
same,Tmax,"mouse, in vivo, po, 300 mg/kg",2
same,Mouse plasma nikZ level,time 0.5,2920 ng/mL
same,"Mouse plasma nikZ level, % (of Cmax)",time 0.5,77.9%
same,Mouse plasma nikZ level,time 1,3750 ng/mL
same,"Mouse plasma nikZ level, % (of Cmax)",time 1,100%
same,Mouse plasma nikZ level,time 2,2320 ng/mL
same,"Mouse plasma nikZ level, % (of Cmax)",time 2,62% and 61.9%
same,Mouse plasma nikZ level,time 4,1400 ng/mL
same,"Mouse plasma nikZ level, % (of Cmax)",time 4,37% and 37.3%
same,Mouse plasma nikZ level,time 8,180 ng/mL
same,"Mouse plasma nikZ level, % (of Cmax)",time 8,4.8%
same,Mouse plasma nikZ level,time 12,35 ng/mL
same,"Mouse plasma nikZ level, % (of Cmax)",time 12,0.9%
same,Mouse plasma nikZ level,time 24,7.5 ng/mL
same,"Mouse plasma nikZ level, % (of Cmax)",time 24,0.2%
same,MFC,[2],2.5 µg/mL
same,MIC,[2],2.5 µg/mL
same,Blood level as % of Cmax by 8 hours,[3],about 5%
same,Time to reach Cmax,[3],1 to 2 h
same,Blood level as % of Cmax by 8 hours,[4],about 5%
same,Time to reach Cmax,[4],1 to 2 h
same,Survival,Coccidioides [5],20%
same,Liver CFU asymptote of dose response curve,Coccidioides [6],about 100 CFU
same,Lung fungal count at suppression (dose response curve),Coccidioides [6],below 10 CFU
same,Spleen fungal count at suppression (dose response curve),Coccidioides [6],below 10 CFU
same,log10 CFU reduction in liver,Coccidioides [6],−1.7 log10 CFU
same,log10 CFU reduction in lung,Coccidioides [6],−3.2 log10 CFU
same,log10 CFU reduction in spleen,Coccidioides [6],−1.8 log10 CFU
same,Cmax in plasma,[7]; 100 mg/kg,4200 ng/mL
same,Tmax in plasma,[7]; 100 mg/kg,2 h
same,t1/2 in plasma,[7]; 100 mg/kg,2.2 h
same,Cmax in plasma,[7]; 300 mg/kg,8000 ng/mL
same,Tmax in plasma,[7]; 300 mg/kg,1 h
same,t1/2 in plasma,[7]; 300 mg/kg,2.3 h
same,Half-life in blood (clearance),[7],1 to 2 h
same,Cmax in brain,[8]; 100 mg/kg,0.20 mcg/gm
same,Tmax in brain,[8]; 100 mg/kg,2 h
same,t1/2 in brain,[8]; 100 mg/kg,6.2 h
same,Cmax in brain,[8]; 300 mg/kg,0.26 mcg/gm
same,Tmax in brain,[8]; 300 mg/kg,2 h
same,t1/2 in brain,[8]; 300 mg/kg,4.4 h
same,Tolerated oral dose,[9],up to 2000 mg/kg/day
same,Half-life in blood (clearance),[10]; human,1 to 2 h
same,Dose at which tapering in oral uptake efficiency is observed (breakpoint),[10]; po,about 5.5 mg/kg
